Assay results as given in BindingDB's records for doi:10.1016/0960-894X(96)00081-9 (1996).

How the values were obtained:
[1] = molecular target: T1, Alpha-1A/Alpha-1B/Alpha-1D adrenergic receptor (Rattus norvegicus, UniProt P15823+P43140+P23944); test: Binding affinity at Alpha-1 adrenergic receptor in rat cerebral cortex membranes by [3H]prazosin displacement.
T1 sequence (P15823 whole entry): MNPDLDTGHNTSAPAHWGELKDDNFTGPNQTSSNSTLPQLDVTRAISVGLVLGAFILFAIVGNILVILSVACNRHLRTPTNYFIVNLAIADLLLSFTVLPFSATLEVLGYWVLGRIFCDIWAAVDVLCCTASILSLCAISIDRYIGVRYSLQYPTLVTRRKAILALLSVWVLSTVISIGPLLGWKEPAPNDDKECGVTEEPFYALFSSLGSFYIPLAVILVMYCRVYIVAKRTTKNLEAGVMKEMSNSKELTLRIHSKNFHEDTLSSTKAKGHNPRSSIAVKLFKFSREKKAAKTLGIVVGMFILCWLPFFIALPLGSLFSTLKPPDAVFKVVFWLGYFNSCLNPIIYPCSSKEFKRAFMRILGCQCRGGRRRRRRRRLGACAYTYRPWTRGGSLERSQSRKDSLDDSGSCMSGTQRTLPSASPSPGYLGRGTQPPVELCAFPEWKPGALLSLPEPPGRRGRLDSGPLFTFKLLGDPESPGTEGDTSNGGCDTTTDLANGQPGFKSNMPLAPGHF
T1 sequence (P43140 whole entry): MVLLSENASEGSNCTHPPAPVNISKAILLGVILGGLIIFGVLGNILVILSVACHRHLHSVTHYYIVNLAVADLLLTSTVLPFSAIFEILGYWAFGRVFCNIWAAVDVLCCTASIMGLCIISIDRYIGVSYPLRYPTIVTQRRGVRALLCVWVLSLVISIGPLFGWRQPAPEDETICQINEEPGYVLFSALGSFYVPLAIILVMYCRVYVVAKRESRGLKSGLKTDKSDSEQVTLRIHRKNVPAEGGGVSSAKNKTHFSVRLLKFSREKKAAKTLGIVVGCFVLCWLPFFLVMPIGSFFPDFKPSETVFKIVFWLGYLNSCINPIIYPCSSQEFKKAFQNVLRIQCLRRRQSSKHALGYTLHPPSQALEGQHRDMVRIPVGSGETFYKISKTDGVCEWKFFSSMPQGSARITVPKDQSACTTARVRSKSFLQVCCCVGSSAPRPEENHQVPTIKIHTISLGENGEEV
T1 sequence (P23944 whole entry): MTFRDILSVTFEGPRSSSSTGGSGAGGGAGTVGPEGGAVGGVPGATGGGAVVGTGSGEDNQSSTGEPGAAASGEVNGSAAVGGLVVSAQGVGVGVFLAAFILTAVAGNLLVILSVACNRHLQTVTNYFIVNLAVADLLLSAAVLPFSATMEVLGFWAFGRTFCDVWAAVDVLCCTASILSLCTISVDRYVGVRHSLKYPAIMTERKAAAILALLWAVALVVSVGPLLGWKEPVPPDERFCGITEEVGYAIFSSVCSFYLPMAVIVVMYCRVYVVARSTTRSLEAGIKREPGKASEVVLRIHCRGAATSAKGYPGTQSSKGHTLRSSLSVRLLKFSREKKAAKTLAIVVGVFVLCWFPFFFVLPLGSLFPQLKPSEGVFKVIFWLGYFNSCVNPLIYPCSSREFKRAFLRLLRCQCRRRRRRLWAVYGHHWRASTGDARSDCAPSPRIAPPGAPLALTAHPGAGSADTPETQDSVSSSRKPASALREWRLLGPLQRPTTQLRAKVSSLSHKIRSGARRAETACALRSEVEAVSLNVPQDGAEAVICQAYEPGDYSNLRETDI

[2] = molecular target: T2, 5-hydroxytryptamine receptor 1A (Rattus norvegicus, UniProt P19327); test: ChEBML_841
T2 sequence (P19327 whole entry): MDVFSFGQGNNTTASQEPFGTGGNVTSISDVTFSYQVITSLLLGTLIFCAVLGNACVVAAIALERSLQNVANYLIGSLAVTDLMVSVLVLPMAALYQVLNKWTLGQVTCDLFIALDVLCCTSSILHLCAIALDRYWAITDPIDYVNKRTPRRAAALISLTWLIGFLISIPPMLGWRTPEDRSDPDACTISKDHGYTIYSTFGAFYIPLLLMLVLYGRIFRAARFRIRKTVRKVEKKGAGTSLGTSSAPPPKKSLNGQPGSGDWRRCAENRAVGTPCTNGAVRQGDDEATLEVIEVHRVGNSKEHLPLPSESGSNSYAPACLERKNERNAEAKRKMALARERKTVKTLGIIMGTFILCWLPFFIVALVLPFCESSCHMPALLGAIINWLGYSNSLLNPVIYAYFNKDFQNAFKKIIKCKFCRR
Method: Compound was evaluated for its ability to displace [3H]8-OH-DPAT from serotonin 5-hydroxytryptamine 1A receptor in rat cerebral cortex membranes

Ki [1] [nM] | Ki [2] [nM] | Compound
> 1000 | – | COc1ccccc1N1CCN(Cn2c(O)c3n(c2=O)CCCC3)CC1 [2-[4-(2-Methoxy-phenyl)-piperazin-1-ylmethyl]-tetrahydro-imidazo[1,5-a]pyridine-1,3-dione]
19 | – | O=c1n(CCCCN2CCN(c3ccccc3)CC2)c(O)c2n1CCCC2 [2-[4-(4-Phenyl-piperazin-1-yl)-butyl]-tetrahydro-imidazo[1,5-a]pyridine-1,3-dione]
18 | 54 | O=c1n(CCCN2CCN(c3cccc(Cl)c3)CC2)c(O)c2n1CCCC2 [2-{3-[4-(3-Chloro-phenyl)-piperazin-1-yl]-propyl}-tetrahydro-imidazo[1,5-a]pyridine-1,3-dione]
